The record followed here is patent US20070093476A1, “Novel compounds and their use in medicine,as antidiabetic and hypolipidemic agents, process for their preparation and pharmaceutical compositions containing them” (priority 2003, published 2007).

Counter-ions that a name gives are not always drawn. Like-named read-outs stand apart in the source and are kept apart here.

One series concerns the target T1, hPPARα (Homo sapiens, UniProt Q07869).
T1 construct: expressed in transfected cells; host or cells: HEK-293
T1 sequence (Q07869 239-466 limits assumed): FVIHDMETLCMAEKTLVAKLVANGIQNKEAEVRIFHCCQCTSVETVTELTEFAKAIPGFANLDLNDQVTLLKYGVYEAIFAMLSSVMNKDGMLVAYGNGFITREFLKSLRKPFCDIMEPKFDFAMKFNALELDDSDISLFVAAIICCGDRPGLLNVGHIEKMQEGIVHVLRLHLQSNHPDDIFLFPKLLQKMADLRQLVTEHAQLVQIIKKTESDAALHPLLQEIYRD
In words: Determination of hPPARα activity (GAL4-LBD luciferase reporter transactivation in HEK-293 cells). The note with it: 50 μM compound. The format is cell-based. The method, then: a) Determination of hPPARα Activity Ligand binding domain of hPPARα was fused to […] of Yeast transcription factor GAL4 in eucaryotic expression vector. Using superfect (Qiagen, Germany) as transfecting reagent HEK-293 cells are transfected with this plasmid and a reporter plasmid harboring the luciferase gene driven by a GAL4 specific promoter. Compound can be added at different concentrations after 42 hrs of transfection and incubated overnight. Luciferase activity as a function of compound binding/activation capacity of PPARα will be measured using Packard Luclite kit (Packard, USA) in Top Count (Ivan Sadowski, Brendan Bell, Peter Broag and Melvyn Hollis. Gene. 1992. 118 : 137-141; Superfect Transfection Reagent Handbook. February 1997. Qiagen, Germany).

The subject of the next series is Swiss albino mice. Nature of the series: Plasma triglyceride lowering activity in Swiss albino mice. The following applies: Mus musculus, 144 h, read-out: % of Reduction in Triglyceride. The class given is in vivo. The method, then:
b) Plasma Triglyceride and Total Cholesterol Lowering Activity in Swiss Albino Mice and Guinea Pigs
Male Swiss albino mice (SAM) and male Guinea pigs are obtained from NIN and housed in DRF animal house. All these animals are maintained under 12 hour light and dark cycle at 25±1° C. Animals are given standard laboratory chow (NIN, Hyderabad, India) and water, ad libitum. SAM of 20-25 g body weight range and Guinea pigs of 500-700 g body weight range are used (Oliver, P., Plancke, M. O., Marzin, D., Clavey, V., Sauzieres, J and Fruchart, J. C. Effects of fenofibrate, gemfibrozil and nicotinic acid on plasma lipoprotein levels in normal and hyperlipidemic mice. Atherosclerosis. 1988. 70 : 107-114).
The test compounds can be administered orally to Swiss albino mice at 0.3 to 30 mg/kg/day dose for 6 days. Control mice are treated with vehicle (0.25% Carboxymethylcellulose; dose 10 ml/kg). The test compounds are administered orally to Guinea pigs at 0.3 to 30 mg/kg/day dose for 6 days. Control animals are treated with vehicle (0.25% Carboxymethylcellulose; dose 5 ml/kg).
The blood samples can be collected in fed state 1 hour after drug administration on 0 and 6 day of treatment. The blood can be collected from the retro-orbital sinus through heparinised capillary in EDTA containing tubes. After centrifugation, plasma sample was separated for triglyceride and total cholesterol (Wieland, O. Methods of Enzymatic analysis. Bergermeyer, H. O., Ed., 1963. 211-214; Trinder, P. Ann. Clin. Biochem. 1969. 6 : 24-27). Measurement of plasma triglyceride, total cholesterol and HDL are done using commercial kits (Dr. Reddy's Diagnostic Division, Hyderabad, India).

In a further series the target is T2, hPPARγ1 (Homo sapiens, UniProt P37231).
T2 construct: expressed in transfected cells; host or cells: HEK-293
T2 sequence (P37231 238-503 limits assumed): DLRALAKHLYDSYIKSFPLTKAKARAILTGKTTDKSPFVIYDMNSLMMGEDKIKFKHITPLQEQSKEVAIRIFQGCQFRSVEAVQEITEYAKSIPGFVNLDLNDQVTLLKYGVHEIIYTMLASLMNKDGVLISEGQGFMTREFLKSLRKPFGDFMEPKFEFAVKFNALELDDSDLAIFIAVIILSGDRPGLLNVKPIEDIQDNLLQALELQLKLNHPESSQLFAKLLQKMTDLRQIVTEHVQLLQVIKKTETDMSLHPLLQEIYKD
In words: Determination of hPPARγ activity (GAL4-LBD luciferase reporter transactivation in HEK-293 cells). The class given is cell-based. The following applies: 1 μM compound. How it is done: b) Determination of hPPARγ Activity
Ligand binding domain of hPPARγ1 is fused to DNA binding domain of Yeast transcription factor GAL4 in eucaryotic expression vector. Using lipofectamine (Gibco BRL, USA) as transfecting reagent HEK-293 cells are transfected with this plasmid and a reporter plasmid harboring the luciferase gene driven by a GAL4 specific promoter. Compound can be added at 1 μM concentration after 48 hrs of transfection and incubated overnight Luciferase activity as a function of drug binding/activation capacity of PPARγ1 will be measured using Packard Luclite kit (Packard, USA) in Packard Top Count (Ivan Sadowski, Brendan Bell, Peter Broag and Melvyn Hollis. Gene. 1992. 118 : 137-141; Guide to Eukaryotic Transfections with Cationic Lipid Reagents. Life Technologies, GIBCO BRL, USA).
On the technique in general: In a reporter assay the amount or activity of a reporter protein is the signal.

In a further series the test system is C57BL/KsJ-db/db mice. In words: Efficacy in genetic model: plasma glucose and triglyceride lowering in db/db mice. The class given is in vivo. The following applies: 3 mg/kg/d oral gavage, 6 days. The text has this:
a) Efficacy in Genetic Models
Mutation in colonies of laboratory animals and different sensitivities to dietary regimens have made the development of animal models with non-insulin dependent diabetes and hyperlipidemia associated with obesity and insulin resistance possible. Genetic models such as db/db and ob/ob (Diabetes, (1982) 31(1) : 1-6) mice and zucker fa/fa rats have been developed by the various laboratories for understanding the pathophysiology of disease and testing the efficacy of new antidiabetic compounds (Diabetes, (1983) 32: 830-838; Annu. Rep. Sankyo Res. Lab. (1994). 46: 1-57). The homozygous animals, C57 BL/KsJ-db/db mice developed by Jackson Laboratory, US, are obese, hyperglycemic, hyperinsulinemic and insulin resistant (J. Clin. Invest., (1990) 85 : 962-967), whereas heterozygous are lean and normoglycemic. […]
The random blood sugar and triglyceride levels can be measured by collecting blood (100 μl) through orbital sinus, using heparinised capillary in tubes containing EDTA which was centrifuged to obtain plasma. The plasma glucose and triglyceride levels can be measured spectrometrically, by glucose oxidase and glycerol-3-PO4 oxidase/peroxidase enzyme (Dr. Reddy's Lab. Diagnostic Division Kits, Hyderabad, India) methods respectively.

The mark [1] stands for this setting: Swiss albino mice, 3 mg/kg/d oral, 6 days.

Take `CCOC(CCCc1ccc(NCc2ccc3cc(OS(C)(=O)=O)ccc3c2)cc1)C(=O)O` (stereo not shown) [Example 46, 2-Ethoxy-5-[4-{6-methanesulfonyloxynapth-2-ylmethylamino}phenyl]pentatonic acid Arginine salt]: the “PPAR fold activation, PPAR α at 50 μM concentration” value (“PPAR fold activation, PPAR α” below) on hPPARα is recorded as 3.2 fold. Besides, the inhibition in vivo at 10 mg/kg/day in the series on Swiss albino mice (po) came to 12%. Further, the “PPAR fold activation, PPAR γ at 1 μM concentration” value (from here on “PPAR fold activation, PPAR γ”) on hPPARγ1 amounted to 2.1 fold.
Take `CCOC(=O)C(Cc1ccc(NCc2ccc3cc(OS(C)(=O)=O)ccc3c2)cc1)OCC` (stereo not shown) [Example 2, Ethyl 2-ethoxy-3-[4-{6-methanesulfonyloxynapth-2-ylmethylamino}phenyl]propanoate]: the melting point lay within 118 to 120 °C. In addition, the “PPAR fold activation, PPAR α” value at hPPARα came out at 3.5 fold. For the same molecule, in the series with Swiss albino mice (setting [1]), the inhibition in vivo at 3 mg/kg/day was 50%. In addition, the “PPAR fold activation, PPAR γ” value on hPPARγ1 is 15.5 fold.
In the case of `CO[C@@H](Cc1ccc(NCCCn2ccc3cc(OS(C)(=O)=O)ccc32)cc1)C(=O)O` [Example 50, (S)-2-Methoxy-3-[4-{3-(5-methanesulfonyloxyindol-1-yl)propylamino}phenyl]propanoic acid Arginine salt], the “PPAR fold activation, PPAR α” value at hPPARα stood at 3.5 fold. For the same molecule, the inhibition in vivo at 3 mg/kg/day in the series on Swiss albino mice (po) came out at 31%. Besides, the “PPAR fold activation, PPAR γ” value at hPPARγ1 worked out at 1.4 fold.
With `CO[C@@H](Cc1ccc(NCc2ccc3cc(OS(C)(=O)=O)ccc3c2)cc1)C(=O)O` [Example 45, (S)-2-Methoxy-3-[4-{6-methanesulfonyloxynapth-2-ylmethylamino}phenyl]propanoic acid Arginine salt], the “PPAR fold activation, PPAR α” value on hPPARα is listed as 5.2 fold. Moreover, the inhibition in vivo at 3 mg/kg/day in the series on Swiss albino mice (po) was 60%. Also, the “PPAR fold activation, PPAR γ” value at hPPARγ1 stood at 1.4 fold. In the series on C57BL/KsJ-db/db mice, the “% of Reduction in Triglyceride” value is given as 28% and the “% of reduction in Plasma glucose” value is 32%.
Molecule `CCOC(Cc1ccc(NCc2ccc3cc(OS(C)(=O)=O)ccc3c2)cc1)C(=O)O` (stereo not shown) [Example 24, 2-Ethoxy-3-[4-{6-methanesulfonyloxynapth-2-ylmethylamino}phenyl]propanoic acid] returned a melting point of 168 to 170 °C. Also, the “PPAR fold activation, PPAR α” value on hPPARα was found to be 7.4 fold. In addition, the inhibition in vivo at 3 mg/kg/day in the series on Swiss albino mice (setting [1]) is 46%. The “PPAR fold activation, PPAR γ” value at hPPARγ1 is 4.5 fold.
As to `CCOC(Cc1ccc(NCCCN2CCCc3ccccc32)cc1)C(=O)O` (stereo not shown) [Example 55, 2-Ethoxy-3-[4-{3-1,2,3,4-tetrahydroquinolyn-1-yl)propylamino}phenyl]propanoic acid Arginine salt], the “PPAR fold activation, PPAR α” value at hPPARα was 3.8 fold. Besides, the inhibition in vivo at 3 mg/kg/day in the series with Swiss albino mice (po) stood at 60%. Moreover, the “PPAR fold activation, PPAR γ” value on hPPARγ1 came out at 11.9 fold.
As for `CO[C@@H](Cc1ccc(NCCCn2ccc3ccccc32)cc1)C(=O)O` [Example 48, (S)-2-Methoxy-3-[4-{3-(indol-1-yl)propylamino}phenyl]propanoic acid Arginine salt], the “PPAR fold activation, PPAR α” value at hPPARα is listed as 4.6 fold. For the same molecule, in the series with Swiss albino mice (po), the inhibition in vivo at 3 mg/kg/day amounted to 27%. Also, the “PPAR fold activation, PPAR γ” value at hPPARγ1 worked out at 6.1 fold.
Take `CCOC(Cc1ccc(NCC2CCc3cc(OS(C)(=O)=O)ccc3C2)cc1)C(=O)O` (stereo not shown) [Example 53, 2-Ethoxy-3-[4-{(6-methanesulfonyloxy-1,2,3,4-tetrahydronapth-2-yl)methylamino}phenyl]propanoic acid Arginine salt]: at hPPARα, the “PPAR fold activation, PPAR α” value was found to be 3.7 fold. In the series with Swiss albino mice (po), the inhibition in vivo at 3 mg/kg/day is 79%. In addition, on hPPARγ1, the “PPAR fold activation, PPAR γ” value amounted to 5.8 fold.
Regarding `CCO[C@@H](Cc1ccc(NCCCn2ccc3cc(OS(C)(=O)=O)ccc32)cc1)C(=O)O` [Example 49, (S)-2-Ethoxy-3-[4-{3-(5-methanesulfonyloxyindol-1-yl)propylamino}phenyl]propanoic acid Arginine salt], the “PPAR fold activation, PPAR α” value on hPPARα was found to be 3.6 fold. Further, the inhibition in vivo at 3 mg/kg/day with Swiss albino mice (po) came out at 54%. The “PPAR fold activation, PPAR γ” value on hPPARγ1 is recorded as 1.5 fold.

Usually melting point stands for the temperature of the solid-liquid transition.
